Measurements from patent US20260273078A1, “AN INJECTABLE DELIVERY SYSTEM FOR LONG-ACTING ADMINISTRATION OF DRUGS” (priority 2023, published 2026).
Entries after “also recorded” stand apart in the source; their conditions may differ.

Experiments:
proteinase K = proteinase K (Parengyodontium album, UniProt P06873); test: Biostability after incubation with proteinase K over 28 days; type: in vitro ADME; settings: up to 28 days
Description: L-peptide NapFFKY(p)G-OH (small circle) and D-peptide NapffkY(p)G-OH (upright triangle) are peptide-only controls that also form hydrogels in response to phosphatase enzymes.

HIV = settings: cited from earlier work

proteinase K, sequence (P06873 106-384): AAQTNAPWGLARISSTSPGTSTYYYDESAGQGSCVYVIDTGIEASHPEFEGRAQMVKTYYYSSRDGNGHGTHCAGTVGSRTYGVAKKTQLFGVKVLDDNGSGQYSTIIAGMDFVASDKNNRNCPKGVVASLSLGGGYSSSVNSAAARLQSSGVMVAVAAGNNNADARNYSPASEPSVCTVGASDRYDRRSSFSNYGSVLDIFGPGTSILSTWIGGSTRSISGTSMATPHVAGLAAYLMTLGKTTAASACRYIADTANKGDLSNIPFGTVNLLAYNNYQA

Compound | Biostability in the presence of proteinase-K (in words) (proteinase K) | IC50 range (HIV)
NCCCC[C@H](NC(=O)[C@H](Cc1ccccc1)NC(=O)[C@H](Cc1ccccc1)NC(=O)Cc1ccc2ccccc2c1)C(=O)N[C@@H](Cc1ccc(OP(=O)(O)O)cc1)C(=O)NCC(=O)O [L-peptide, NapFFKY(p)G-OH, reference compound] | degrades rapidly, within hours | 
Cc1cn([C@H]2C[C@H](N=[N+]=[N-])[C@@H](CO)O2)c(=O)[nH]c1=O [zidovudine] |  | 0.03 to 0.13 µg/mL
(NPhe)4GGGGKY(p)-OH [PP4G L-peptide variant] | breaks down between days; also recorded: breaks down within days | 
NapffkY(p)G-OH [D-peptides, reference compound] | significant stability after 28 days | 
